Laboratory results reported in publication PMC11219744, “Renal excretion of 1,2-dihydroxynaphthalene (DHN) in firefighting instructors after exposure to polycyclic aromatic hydrocarbons (PAHs) during live fire training” (Scientific Reports, 2024).

Tests used:
[1] = cited from earlier work
[2] = upper margin of internal exposure typically found in smokers; cited from earlier work
[3] = set-up: method as in PMID 32464238; conditions: by scheduled sampling time; cited from earlier work
[4] = Human biomonitoring: urinary excretion of PAH metabolites (GC–MS/MS, creatinine-normalised) in firefighting instructors before and after live fire training; conditions: for Increase in concentration from before exposure up to the maximum of excretion, factor / Median increase in morning urine after exposure (sampling 9) vs. before (sampling 1) / Concentration in urine, IQR / Concentration in urine, range / Concentration in urine, median: in vivo; for Median increase from baseline (sample 2) to peak excretion: peak: sample 5 for 1-PYR, sample 4 otherwise
Procedure: All study participants (n = 6) were male firefighting instructors from Germany. […] Before the start of the study, all subjects declared that they were non-smokers. Tattoo bearers were excluded before the start of the study as tattoo ink can be a potential source of polycyclic aromatic hydrocarbons. The authors declare that this research was conducted in accordance with the relevant regulations, including the Declaration of Helsinki. All subjects gave written informed consent after being informed about the study by the investigator.
Exposure to combustion products took place in several training sessions that simulated live fire conditions by burning a defined number of uncoated chipboards in an overseas container. The container was located in a hall with exhaust air purification. […] In addition, all subjects wore long-sleeved undergarments under their turnout gear. Only laundered clothing and cleaned equipment (e.g. helmets, masks) were used. The donning and doffing of clothing and protective equipment took place only in a smoke-free, well-ventilated area. Immediately after taking off the firefighters' gloves after training, the participants put on nitrile gloves for further undressing. After removing the helmet, flash hood and SCBA face shield, the participants put on particle filtering half masks (FFP3) to remove contaminated turnout jackets and trousers. After a break for rehydration and cool down still wearing their undergarments, the participants went to shower. […] The interval between two consecutive training sessions for each subject was at least six days. […] In this way, each subject was biomonitored at each of the five training sessions. All additional (unscheduled) urinations between the predefined times were also collected in separate containers and pooled afterwards with the next scheduled sample. […] A total of 270 samples were to be collected using this procedure for all participants and five training sessions of each individual. Subjects completed a questionnaire for each sampling period to account for possible pre-exposure or concurrent exposure to PAHs from sources other than the fire simulation unit, such as occupational exposure to combustion products, exposure to tobacco smoke (active/passive) and barbecue activities, and consumption of smoked or charbroiled foods.
In brief, the analytes were extracted by liquid–liquid extraction with n-hexane after enzymatic hydrolysis of the urine samples with ß-glucuronidase/arylsulfatase (isolated from helix pomatia) and derivatised by silylation with N-trimethylsilyl-N-methyl trifluoroacetamide afterwards. […] All standards were obtained from LGC-Standards, Wesel, Germany.
DHN in urine was determined referring to a method described in detail by Klotz et al.[29]. […] External calibration with internal standardisation by an isotopically labelled analogue of the target compound was done by analysis of pool urine samples spiked with the glucuronides of DHN and D6-1,2-dihydroxynaphthalene (internal standard) before enzymatic hydrolysis. Both standards are not commercially available and were obtained as a gift from the Institute of Occupational, Social and Environmental Medicine at the University of Erlangen-Nuremberg (Germany). A detailed description of the synthesis of the compounds is given by[26]. […] Up to now, there is no external quality assessment scheme available for DHN.
Urinary creatinine was analysed in the Institute of Clinical Chemistry and Laboratory Medicine of University Medical Centre of the Johannes Gutenberg University Mainz using a photometrical assay based on the method of[30].

[5] = Time to peak and initial elimination half-life of the urinary biomarkers (first-order model, linear mixed effects); format: in vivo, human
From the text: The initial half-life of each biomarker was estimated using statistical methods described previously[6],[32]. In short, we estimated the first-order elimination rate constant λ based on the model in Eq. (1):1 C=C0+B·e^λ·t+∈
Here, C is the creatinine-adjusted concentration in urine after the uptake phase, C0 is the baseline concentration before training, B is the difference from peak to baseline concentration, t is the time since peak concentration, and ϵ is the error term. […] Using package nlme[33] for the statistical environment R[34],[35], the model was fitted as a linear mixed effects model for the log concentration difference to baseline ln(C–C0) as the outcome. The model was fitted simultaneously for all data and included fixed effects for biomarker, time since peak, and their interaction term. It used random slopes for time since peak and random intercepts for […]. Errors were assumed to be autocorrelated according to an AR(1) process.

[6] = urinary excretion, time after onset of exposure

c1ccc2ccccc2c1 [NAP, naphthalene]
IARC carcinogenicity category [1]: group 2B (possibly carcinogenic to humans)

Oc1cccc2ccccc12 [1-NAP, 1-hydroxynaphthalene]
95th percentile of urinary concentration in smokers [2]: 32.8 µg/g crea. | Time of peak excretion after the end of the training session [3]: 1 h | Increase in concentration from before exposure up to the maximum of excretion, factor [4]: 40 | Median increase in morning urine after exposure (sampling 9) vs. before (sampling 1) [4]: 3.9 fold | Median increase from baseline (sample 2) to peak excretion [4]: 36 fold

Oc1ccc2ccccc2c1 [2-NAP, 2-hydroxynaphthalene]
95th percentile of urinary concentration in smokers [2]: 29.0 µg/g crea. | half-life ([5]; male, human, initial elimination half-life after peak excretion, urine, read-out: Estimated half-life, mean (converted)): 5.2 h | Time to peak, median [5, 6]: 3.3 h | Time to peak, range [5, 6]: 2.2 to 11.2 h | Time of peak excretion after the end of the training session [3]: 1 h | Proportion in the total excretion of the three naphthalene metabolites ([4]; after exposure (after sampling 3, rest of the sampling period), based on median concentrations): lower than 10% | Increase in concentration from before exposure up to the maximum of excretion, factor ([4]; male, human): about 6 | Concentration in urine, IQR ([4]; male, human, 0 h): 4.55–9.78 µg/g creatinine | Concentration in urine, range ([4]; male, human, 0 h): 2.07–42.68 µg/g creatinine | Concentration in urine, IQR ([4]; male, human, 1 h): 11.05–18.20 µg/g creatinine | Concentration in urine, median ([4]; male, human, 1 h): 11.96 µg/g creatinine | Concentration in urine, range ([4]; male, human, 1 h): 3.97–58.89 µg/g creatinine | Concentration in urine, median ([4]; male, human, 2 h): 7.42 µg/g creatinine | Concentration in urine, IQR ([4]; male, human, 3 h): 8.14–14.40 µg/g creatinine | Concentration in urine, median ([4]; male, human, 3 h): 10.07 µg/g creatinine | Concentration in urine, range ([4]; male, human, 3 h): 5.62–23.16 µg/g creatinine | Concentration in urine, IQR ([4]; male, human, 6 h): 3.62–7.98 µg/g creatinine | Concentration in urine, median ([4]; male, human, 6 h): 5.12 µg/g creatinine | Concentration in urine, range ([4]; male, human, 6 h): 1.17–12.78 µg/g creatinine | Concentration in urine, IQR ([4]; male, human, 9 h): 2.34–5.27 µg/g creatinine | Concentration in urine, median ([4]; male, human, 9 h): 3.48 µg/g creatinine | Concentration in urine, range ([4]; male, human, 9 h): 1.30–11.32 µg/g creatinine | Concentration in urine, IQR ([4]; male, human, 11 h): 1.76–4.19 µg/g creatinine | Concentration in urine, median ([4]; male, human, 11 h): 3.14 µg/g creatinine | Concentration in urine, range ([4]; male, human, 11 h): 1.08–10.02 µg/g creatinine | Concentration in urine, IQR ([4]; male, human, 18 h): 1.93–4.24 µg/g creatinine | Concentration in urine, median ([4]; male, human, 18 h): 3.26 µg/g creatinine | Concentration in urine, range ([4]; male, human, 18 h): 1.02–14.56 µg/g creatinine | Median increase in morning urine after exposure (sampling 9) vs. before (sampling 1) ([4]; male, human, 18 h): 1.5 fold | Concentration in urine, IQR ([4]; male, human, -0.4 h): 1.13–3.47 µg/g creatinine | Concentration in urine, median ([4]; male, human, -0.4 h): 1.94 µg/g creatinine | Concentration in urine, range ([4]; male, human, -0.4 h): 0.21–10.94 µg/g creatinine | Concentration in urine, IQR ([4]; male, human, -4.2 h): 1.18–2.88 µg/g creatinine | Concentration in urine, median ([4]; male, human, -4.2 h): 2.00 µg/g creatinine | Concentration in urine, range ([4]; male, human, -4.2 h): 0.30–10.02 µg/g creatinine | Median increase from baseline (sample 2) to peak excretion [4]: 6.6 fold
